Assay results reported in patent US9603896B2, “Peptide compounds and methods of production and use thereof” (priority 2012, dated 2017).
Ends that are not written are not given here.

What was measured:
Format in all cases: in vivo
swine skin = experiment: Swine full thickness excisional dermal wound model; settings: for Mean Wound Healing (%): topical 3 mg/ml, 0.20 ml per wound daily; for histology: epidermal resurfacing and maturation vs saline control: day 14 post-wounding; for dermal wound healing vs saline: topically at 3 mg/ml, over 14 days; for Histopathology Results, Mean Angiogenesis / Histopathology Results, Mean Epithelization / Histopathology Results, Mean Granulation / Histopathology Results, Mean Inflammation: wounds harvested day 14, 3 mg/ml topical
Method: In this Example, peptide compounds of the presently disclosed and claimed inventive concept(s) were evaluated as to their activity on the dermal wound healing process in a clinically relevant swine full thickness excisional wound model. Three different peptide formulations (Group B, Peptide 95-122 (SEQ ID NO:26); Group C, Peptide 120-146WH (SEQ ID NO:31); and Group D, Peptide 120-146QH-5RMP (SEQ ID NO:33)) were each evaluated at the same concentration (3 mg/ml). Sterile saline served as the control (Group A).
Full thickness excisional wounds were induced on the dorsum of swine (N=3) using a 1.0 cm biopsy punch. Treatments were administered (0.20 ml) to each wound (N=6 wounds per group), and the wounds were dressed with standard occlusive dressing ([…]™, 3M Corporation, St. Paul, Minn.). Treatments were reapplied daily and dressings changed. Clinical wound healing observations and wound area (2 mm) measurements were performed on days 0, 3, 5, 7, 10, and 14 post-wounding. Wound area (2 mm) data were expressed as percentage (%) of wound healing. Animals were terminated on day 14 with wounds harvested and processed for histological evaluation. […] All peptide formulation treatment groups healed faster with greater rate of closure and re-epithelialization over time, as compared to the saline control (Group A).

[1] = test system: cytokines in mouse cornea; experiment: Cytokines in corneal lysates after intrastromal injection (MILLIPLEX MAP mouse cytokine assay); settings: intrastromal 0.5 μl, 10^−4, 10^−5, 10^−6 M; 24 and 48 hours
Method: Corneas were injected intrastromally with 0.5 μl of peptide 95-122 at a final concentration of 10^−4 M, 10^−5 M, and 10^−6 M and vehicle (saline) control. Corneas were collected and flash frozen at 24 hours and 48 hours. Corneal lysates were analyzed for cytokines using the MILLIPLEX® MAP mouse cytokine assay for IL-7(A), IL-15 (B), IFN-γ (C), MIP1-α (D) (EMD Millipore Corp., Billerica, Mass.). The means of independent experimental values are shown ±SEM. ***P<0.001, **P<0.01, *P<0.05 by unpaired t-test as compared to vehicle treated controls. […] Corneas were injected intrastromally with 0.5 μl of peptide 95-122 at a final concentration of 10^−4 M, 10^−5 M, and 10^−6 M and vehicle (saline) control. Corneas were collected and flash frozen at 24 hours and 48 hours. Corneal lysates were analyzed for cytokines using the MILLIPLEX® MAP mouse cytokine assay for MIP1-β (EMD Millipore Corp., Billerica, Mass.). **P<0.01, *P<0.05 by unpaired t-test as compared to vehicle treated controls. […] Corneas were injected intrastromally with 0.5 μl of peptide 95-122 at a final concentration of 10^−4 M, 10^−5 M, and 10^−6 M and vehicle (saline) control. Corneas were collected and flash frozen at 24 hours and 48 hours. Corneal lysates were analyzed for cytokines using the MILLIPLEX® MAP mouse cytokine assay for KC (A), IL-1β (B), and GM-CSF (C) (EMD Millipore Corp., Billerica, Mass.). **P<0.01, *P<0.05 by unpaired t-test as compared to vehicle treated controls.

[2] = test system: P. aeruginosa (ATCC® 27853™); experiment: Pseudomonas keratitis model in the mouse eye; settings: topical, doses of 10 and 20 mg/ml
Method: A circular wound was created on the mouse cornea by removing the epithelium and infected with 10^5 colony forming units (CFU) of P. aeruginosa (ATCC® 27853™ (American Type Culture Collection, Manassas, Va.)). Infected wounds were treated with saline (0.9% sodium chloride, vehicle control) or saline containing indicated concentrations of peptide every 15 minutes for 2 hours, then every 30 minutes for 3 hours on the first day. Infected wounds were treated twice on the second day and once on the third day. Mice were killed at 48 hours post-infection, and CFU/eye were quantified. The means were plotted and are representative of 5 to 9 mice per group. Mann Whitney test was performed for each group as compared to the saline control group. *P=0.014.
A circular wound (2 mm) was created on the mouse cornea by removing the epithelium and infecting the wound with 10^5 CFU of P. aeruginosa (ATCC® 27853™ (American Type Culture Collection, Manassas, Va.)). Infected wounds were treated with saline or saline containing indicated concentrations of peptide every 15 minutes for 2 hours, then every 30 minutes for 3 hours on the first day. Infected wounds were treated twice on the second day and once on the third day. Mice were killed at 48 hours post-infection, and the colony forming units per eye (CFU/eye) were quantified. The means are plotted and are representative of 5 to 9 mice per group. Mann Whitney test was performed for each group as compared to the saline control group.
For FIGS. 15-17, in vivo bactericidal activity of the peptides was also investigated using the standard Pseudomonas keratitis model in the mouse eye (FIGS. 15-17). Peptides 120-146QR-5RMP (SEQ ID NO:32), 120-146WH (SEQ ID NO:31), and 120-146WR (SEQ ID NO: 30) were applied topically at doses of 2, 5, 10, and 20 mg/ml to the wounded cornea that had been infected with 10^5 CFU of Pseudomonas aeruginosa. The efficacies of the peptides were compared to treatment with the vehicle control. Mice were euthanized at 48 hours post infection, and the CFU/eye were quantified.

LDREANLTSSVTILPLPLQNATVEAGTR (listed as Homo sapiens) [Peptide 95-122]
Mean Wound Healing (%) (swine skin; Day 0): 0.0%
Mean Wound Healing (%) (swine skin; Day 14): 100.0%
histology: epidermal resurfacing and maturation vs saline control (swine skin): greater extent of epidermal resurfacing and maturation of the epidermis
dermal wound healing vs saline (swine skin): accelerate dermal wound healing
Histopathology Results, Mean Angiogenesis (swine skin): 2.3
Histopathology Results, Mean Epithelization (swine skin): 4.0
Histopathology Results, Mean Granulation (swine skin): 4.0
Histopathology Results, Mean Inflammation (swine skin): 0.5
GM-CSF in corneal lysates [1]: significantly increases
IFN-γ in corneal lysates [1]: significantly increases
IL-1β in corneal lysates [1]: significantly increases
IL-7 in corneal lysates [1]: significantly increases
IL-15 in corneal lysates [1]: significantly increases
KC in corneal lysates [1]: significantly increases
MIP1-13 in corneal lysates [1]: significantly increases
MIP1-α in corneal lysates [1]: significantly increases

GTRCQVAGWGSWHSGGRLSRFPRFVNV [Peptide 120-146WH]
CFU/eye at 48 hours post infection vs saline [2]: significantly reduced the CFU/eye
Mean Wound Healing (%) (swine skin; Day 0): 0.0%
Mean Wound Healing (%) (swine skin; Day 3): 22.1%
Mean Wound Healing (%) (swine skin; Day 5): 35.9%
Mean Wound Healing (%) (swine skin; Day 7): 59.7%
Mean Wound Healing (%) (swine skin; Day 10): 93.5%
Mean Wound Healing (%) (swine skin; Day 14): 97.5%
histology: epidermal resurfacing and maturation vs saline control (swine skin): greater extent of epidermal resurfacing and maturation of the epidermis
dermal wound healing vs saline (swine skin): accelerate dermal wound healing
Histopathology Results, Mean Angiogenesis (swine skin): 1.7
Histopathology Results, Mean Epithelization (swine skin): 3.7
Histopathology Results, Mean Granulation (swine skin): 4.0
Histopathology Results, Mean Inflammation (swine skin): 0.5
